Experimental data published in ChEMBL document CHEMBL1201862, “PubChem BioAssay data set” (2004).
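1) Cells in 96-well plates. 2) Compound, 48 h, 5 concentrations. 3) Linear interpolation between surrounding doses. 4) Unreached endpoint = highest concentration. GI50: concentration for 50% inhibition of growth.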 Activity calls are given as the source filed them. No stated cut-off is given here; in the data, active = GI50 up to about 1.1 µM and inactive = higher.

Experiments:
Assay in all cases: growth of human tumour cells (NCI), 48 h
A498 = test system: A498
CCRF-CEM = test system: CCRF-CEM
DU-145 = test system: DU-145
HCT-116 = test system: HCT-116
HL-60 = test system: HL-60
HOP-62 = test system: HOP-62
IGROV-1 = test system: IGROV-1
K562 = test system: K562
KM12 = test system: KM12
MDA-MB-231 = test system: MDA-MB-231
Malme-3M = test system: Malme-3M
NCI-H460 = test system: NCI-H460
OVCAR-3 = test system: OVCAR-3
OVCAR-4 = test system: OVCAR-4
OVCAR-8 = test system: OVCAR-8
SF-295 = test system: SF-295
SK-OV-3 = test system: SK-OV-3
SR = test system: SR
SW-620 = test system: SW-620
UACC-62 = test system: UACC-62

SMILES | GI50 (A498) | GI50 (CCRF-CEM) | GI50 (DU-145) | GI50 (HCT-116) | GI50 (HL-60) | GI50 (HOP-62) | GI50 (IGROV-1) | GI50 (K562) | GI50 (KM12) | GI50 (MDA-MB-231) | GI50 (Malme-3M) | GI50 (NCI-H460) | GI50 (OVCAR-3) | GI50 (OVCAR-4) | GI50 (OVCAR-8) | GI50 (SF-295) | GI50 (SK-OV-3) | GI50 (SR) | GI50 (SW-620) | GI50 (UACC-62)
FC(F)(F)C1(C(F)(F)F)C2CCC3(CC(F)(F)C(F)(F)S3)C1C2 (stereo not given) | 57 µM (inactive) | 24.5 µM (inactive) | 73.6 µM (inactive) | 20.2 µM (inactive) | 27.9 µM (inactive) | 48.4 µM (inactive) | 87.7 µM (inactive) | 36 µM (inactive) | 76.6 µM (inactive) | > 100 µM (inactive) | 34 µM (inactive) | 41.3 µM (inactive) | 19.6 µM (inactive) | 80.5 µM (inactive) | > 100 µM (inactive) | 55.1 µM (inactive) | > 100 µM (inactive) | 21.3 µM (inactive) | > 100 µM (inactive) | > 100 µM (inactive)
Cn1c(=O)c2c(nc(C(=N)SCC(=O)O)n2C)n(C)c1=O | 26.9 µM (inactive) | 5.57 µM (inactive) | 61.2 µM (inactive) | 26.5 µM (inactive) | 27.7 µM (inactive) | 56.5 µM (inactive) | 47 µM (inactive) | 27 µM (inactive) | 34.5 µM (inactive) | > 100 µM (inactive) | 45.1 µM (inactive) | 29.6 µM (inactive) | 43.5 µM (inactive) | 24.4 µM (inactive) | 42.7 µM (inactive) | 52.7 µM (inactive) | 61.8 µM (inactive) | 22.7 µM (inactive) | 52.1 µM (inactive) | 34.4 µM (inactive)
Nc1c(C(=O)c2ccc(Cl)cc2)[nH]c(Nc2ccc(Cl)cc2)c1C(=S)Nc1ccccc1 | 12.7 µM (inactive) | 6.27 µM (inactive) | 5.41 µM (inactive) | 3.7 µM (inactive) | 49.5 µM (inactive) | 5.65 µM (inactive) | 4.15 µM (inactive) | 3.29 µM (inactive) | 7.6 µM (inactive) | 4.55 µM (inactive) | 8.34 µM (inactive) | 6.58 µM (inactive) | 3.19 µM (inactive) | 2.08 µM (inactive) | 3.12 µM (inactive) | 2.38 µM (inactive) | 6.52 µM (inactive) | 1.92 µM (inactive) | 6.43 µM (inactive) | 13.4 µM (inactive)
CCOC(=O)/C=C(\C(=O)OCC)n1cc(C)c(=O)n(Cc2cnnn2CCCCOC(C)=O)c1=O | 22.2 µM (inactive) | 0.661 µM (active) | > 41.7 µM (inactive) | 6.53 µM (inactive) | 1.91 µM (inactive) | 27 µM (inactive) | 12.7 µM (inactive) | 2.64 µM (inactive) | 16.7 µM (inactive) | 22.2 µM (inactive) | 1.82 µM (inactive) | 12.4 µM (inactive) | 13.3 µM (inactive) | 19.2 µM (inactive) | 3.37 µM (inactive) | 32.1 µM (inactive) | > 62.4 µM (inactive) | 1.9 µM (inactive) | 2.32 µM (inactive) | 15 µM (inactive)
C#CCOC(=O)C(=[N+]=[N-])C(=O)CC(C)C | > 10 µM (inactive) | > 10 µM (inactive) | > 10 µM (inactive) | > 10 µM (inactive) | > 10 µM (inactive) | > 10 µM (inactive) | > 10 µM (inactive) | > 10 µM (inactive) | > 10 µM (inactive) | > 10 µM (inactive) | > 10 µM (inactive) | > 10 µM (inactive) | > 10 µM (inactive) | > 10 µM (inactive) | > 10 µM (inactive) | > 10 µM (inactive) | > 10 µM (inactive) | > 10 µM (inactive) | > 10 µM (inactive) | > 10 µM (inactive)
CCCCCCCCCCCCCCCC(=O)N(CCCCCCCCCCC(=O)O)CC(O)C(O)C(OC1OC(CO)C(O)C(O)C1O)C(O)CO (stereo not given) | > 100 µM (inactive) | 26.5 µM (inactive) | 91 µM (inactive) | 49.2 µM (inactive) | 22.6 µM (inactive) | 23.5 µM (inactive) | 60.8 µM (inactive) | 22.5 µM (inactive) | 18.8 µM (inactive) | > 100 µM (inactive) | 19.5 µM (inactive) | > 100 µM (inactive) | > 100 µM (inactive) | 60.3 µM (inactive) | 27.1 µM (inactive) | 15.6 µM (inactive) | 54.7 µM (inactive) | 29.1 µM (inactive) | 22.1 µM (inactive) | 18.9 µM (inactive)
O=C(O)C1CC2C3CCC2C1C3=O (stereo not given) | > 100 µM (inactive) | > 100 µM (inactive) | > 100 µM (inactive) | > 100 µM (inactive) | > 100 µM (inactive) | > 100 µM (inactive) | > 100 µM (inactive) | > 100 µM (inactive) | > 100 µM (inactive) | > 100 µM (inactive) | > 100 µM (inactive) | > 100 µM (inactive) | > 100 µM (inactive) | > 100 µM (inactive) | > 100 µM (inactive) | > 100 µM (inactive) | > 100 µM (inactive) | > 100 µM (inactive) | > 100 µM (inactive) | > 100 µM (inactive)
CN1CCN(Cc2nc3cccc4c3c([n+]2[O-])-c2ccccc2-4)CC1 | 15.8 µM (inactive) | 25.9 µM (inactive) | 14.9 µM (inactive) | 4.41 µM (inactive) | 33.1 µM (inactive) | 30 µM (inactive) | 32.5 µM (inactive) | 29.6 µM (inactive) | 27.4 µM (inactive) | 15.8 µM (inactive) | 20.1 µM (inactive) | 17.8 µM (inactive) | 37.8 µM (inactive) | 25.2 µM (inactive) | 12.9 µM (inactive) | 41 µM (inactive) | 59.3 µM (inactive) | 4.19 µM (inactive) | 22.8 µM (inactive) | 24.9 µM (inactive)
